Assay results from patent US7122558B2 (priority 2000, dated 2006).
Counter-ions that a name gives are not always drawn.

Biological target: T1, human muscarinic receptors M3 (Homo sapiens, UniProt P20309)
T1 construct: expressed in transfected cells; host or cells: CHO-K1 (chinese hamster ovary-K1), stably transfected; membrane preparations
Test: biochemical
Type: binding
Settings: for inhibition at 0.1 µM: read-out: % INHIBITION concentration: 1.00E−07 M; for inhibition at 0.01 µM: read-out: % INHIBITION concentration: 1.00E−08 M

T1 sequence (P20309 whole entry): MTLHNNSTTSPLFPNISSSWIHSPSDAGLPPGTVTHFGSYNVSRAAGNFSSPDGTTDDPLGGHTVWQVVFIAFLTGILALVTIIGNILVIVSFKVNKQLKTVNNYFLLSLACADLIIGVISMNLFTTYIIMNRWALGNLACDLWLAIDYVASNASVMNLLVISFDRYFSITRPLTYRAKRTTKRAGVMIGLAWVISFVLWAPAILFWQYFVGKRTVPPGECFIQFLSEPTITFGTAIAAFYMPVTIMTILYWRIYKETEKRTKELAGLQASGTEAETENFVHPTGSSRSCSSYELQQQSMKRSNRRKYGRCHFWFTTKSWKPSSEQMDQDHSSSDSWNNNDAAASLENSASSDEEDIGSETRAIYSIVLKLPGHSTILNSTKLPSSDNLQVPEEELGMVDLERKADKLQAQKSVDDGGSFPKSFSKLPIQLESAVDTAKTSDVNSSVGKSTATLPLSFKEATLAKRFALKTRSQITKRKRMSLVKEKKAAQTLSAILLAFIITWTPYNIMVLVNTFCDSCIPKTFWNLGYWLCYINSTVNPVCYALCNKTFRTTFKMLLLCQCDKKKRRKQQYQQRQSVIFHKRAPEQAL

Compound	inhibition at 0.1 µM [%]	inhibition at 0.01 µM [%]
O=C(O[C@H]1C[N+]2(CCc3ccccc3)CCC1CC2)[C@](O)(c1ccccc1)C1CCCC1 [Example 83, (3R)-3-[(2R)-2-Cyclopentyl-2-hydroxy-2-phenylacetoxy]-1-phenethyl-1-azoniabicyclo[2.2.2]octane trifluoroacetate]	72.7	60.3
O=C(O[C@H]1C[N+]2(CCCSc3ccccc3)CCC1CC2)[C@](O)(c1ccccc1)C1CCCC1 [Example 84, (3R)-3-[(2R)-2-Cyclopentyl-2-hydroxy-2-phenylacetoxy]-1-(3-phenylsulfanylpropyl)-1-azoniabicyclo[2.2.2]octane trifluoroacetate]	68.3	41
O=C(O[C@H]1C[N+]2(CCc3ccccc3)CCC1CC2)[C@@](O)(c1ccccc1)C1CCCC1 [Example 86, (3R)-3-[(2S)-2-Cyclopentyl-2-hydroxy-2-phenylacetoxy]-1-phenethyl-1-azoniabicyclo[2.2.2]octane trifluoroacetate]	68.2	37.2
O=C(O[C@H]1C[N+]2(CCCOc3ccccc3)CCC1CC2)[C@](O)(c1cccs1)C1CCCCC1 [Example 88, (3R)-3-[(2S)-2-Cyclohexyl-2-hydroxy-2-thien-2-ylacetoxy]-1-(3-phenoxypropyl)-1-azoniabicyclo[2.2.2]octane trifluoroacetate]	65.5	35.7
O=C(O[C@H]1C[N+]2(CCc3ccccc3)CCC1CC2)[C@](O)(c1cccs1)C1CCCCC1 [Example 89, (3R)-3-[(2S)-2-Cyclohexyl-2-hydroxy-2-thien-2-ylacetoxy]-1-phenethyl-1-azoniabicyclo[2.2.2]octane trifluoroacetate]	68.5	51.3
O=C(O[C@H]1C[N+]2(CCc3ccccc3)CCC1CC2)[C@@](O)(c1cccs1)C1CCCCC1 [Example 92, (3R)-3-[(2R)-2-Cyclohexyl-2-hydroxy-2-thien-2-ylacetoxy]-1-phenethyl-1-azoniabicyclo[2.2.2]octane trifluoroacetate]	69.4	49.2
CC(C)[N+]1(C)[C@@H]2CC[C@H]1C[C@@H](OC(=O)C(CO)c1ccccc1)C2 (some centres unmarked) [Ipratropium bromide, reference compound]	93.8	67.2
